The IC50 is the point on the concentration scale where inhibition reaches its midpoint. A lower IC50 goes with greater potency.

These results are taken from patent US20240150325A1, “NOVEL COMPOUND AS PROTEIN KINASE INHIBITORS” (LG CHEM, LTD., priority 2021, published 2024).

In one assay the target is RON (Homo sapiens, UniProt Q04912). Put plainly: Evaluation of inhibitory activity to RON. The assay is classed as biochemical. From the text:
(§1) Experimental Example 1. Evaluation of Inhibitory Activity to RON and MET

The next assay has as its target MET (Homo sapiens, UniProt P08581). Put plainly: Evaluation of inhibitory activity to MET. It is filed as biochemical.
Source text: as §1

Chain of MET (P08581 25-1390): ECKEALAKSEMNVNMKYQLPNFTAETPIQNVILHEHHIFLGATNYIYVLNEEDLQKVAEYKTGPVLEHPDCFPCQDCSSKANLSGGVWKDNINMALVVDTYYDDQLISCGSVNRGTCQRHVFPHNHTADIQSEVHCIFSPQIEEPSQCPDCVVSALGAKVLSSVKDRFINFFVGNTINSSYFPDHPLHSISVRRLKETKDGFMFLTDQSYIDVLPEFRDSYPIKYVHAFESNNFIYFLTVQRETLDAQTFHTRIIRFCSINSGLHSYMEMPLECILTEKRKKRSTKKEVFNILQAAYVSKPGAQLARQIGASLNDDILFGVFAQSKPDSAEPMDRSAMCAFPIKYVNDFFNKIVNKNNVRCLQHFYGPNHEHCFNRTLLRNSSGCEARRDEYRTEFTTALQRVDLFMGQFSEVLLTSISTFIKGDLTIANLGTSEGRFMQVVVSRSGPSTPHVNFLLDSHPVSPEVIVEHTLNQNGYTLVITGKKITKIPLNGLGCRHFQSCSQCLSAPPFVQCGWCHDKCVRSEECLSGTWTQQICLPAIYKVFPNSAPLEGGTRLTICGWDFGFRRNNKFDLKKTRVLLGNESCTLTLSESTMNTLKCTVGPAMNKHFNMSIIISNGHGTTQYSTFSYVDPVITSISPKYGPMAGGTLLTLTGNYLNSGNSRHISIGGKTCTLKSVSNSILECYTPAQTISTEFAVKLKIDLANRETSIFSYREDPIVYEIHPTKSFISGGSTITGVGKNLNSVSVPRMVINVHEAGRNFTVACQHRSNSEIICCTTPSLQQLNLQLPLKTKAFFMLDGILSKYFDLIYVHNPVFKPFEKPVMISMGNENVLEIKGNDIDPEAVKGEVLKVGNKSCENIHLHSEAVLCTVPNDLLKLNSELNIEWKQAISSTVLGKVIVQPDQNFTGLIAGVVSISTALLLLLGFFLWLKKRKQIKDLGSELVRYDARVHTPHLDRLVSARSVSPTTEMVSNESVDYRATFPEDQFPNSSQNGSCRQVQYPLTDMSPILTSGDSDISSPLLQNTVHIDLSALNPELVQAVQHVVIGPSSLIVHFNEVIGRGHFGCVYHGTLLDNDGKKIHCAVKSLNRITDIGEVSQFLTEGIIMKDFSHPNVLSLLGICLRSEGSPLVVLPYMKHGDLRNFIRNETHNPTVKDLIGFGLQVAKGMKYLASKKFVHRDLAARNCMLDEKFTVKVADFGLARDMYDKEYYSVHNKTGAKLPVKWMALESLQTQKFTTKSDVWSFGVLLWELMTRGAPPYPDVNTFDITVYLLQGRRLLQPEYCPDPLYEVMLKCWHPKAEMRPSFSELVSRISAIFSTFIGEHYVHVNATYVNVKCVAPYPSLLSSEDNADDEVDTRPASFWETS
Chain of RON (Q04912 25-1400): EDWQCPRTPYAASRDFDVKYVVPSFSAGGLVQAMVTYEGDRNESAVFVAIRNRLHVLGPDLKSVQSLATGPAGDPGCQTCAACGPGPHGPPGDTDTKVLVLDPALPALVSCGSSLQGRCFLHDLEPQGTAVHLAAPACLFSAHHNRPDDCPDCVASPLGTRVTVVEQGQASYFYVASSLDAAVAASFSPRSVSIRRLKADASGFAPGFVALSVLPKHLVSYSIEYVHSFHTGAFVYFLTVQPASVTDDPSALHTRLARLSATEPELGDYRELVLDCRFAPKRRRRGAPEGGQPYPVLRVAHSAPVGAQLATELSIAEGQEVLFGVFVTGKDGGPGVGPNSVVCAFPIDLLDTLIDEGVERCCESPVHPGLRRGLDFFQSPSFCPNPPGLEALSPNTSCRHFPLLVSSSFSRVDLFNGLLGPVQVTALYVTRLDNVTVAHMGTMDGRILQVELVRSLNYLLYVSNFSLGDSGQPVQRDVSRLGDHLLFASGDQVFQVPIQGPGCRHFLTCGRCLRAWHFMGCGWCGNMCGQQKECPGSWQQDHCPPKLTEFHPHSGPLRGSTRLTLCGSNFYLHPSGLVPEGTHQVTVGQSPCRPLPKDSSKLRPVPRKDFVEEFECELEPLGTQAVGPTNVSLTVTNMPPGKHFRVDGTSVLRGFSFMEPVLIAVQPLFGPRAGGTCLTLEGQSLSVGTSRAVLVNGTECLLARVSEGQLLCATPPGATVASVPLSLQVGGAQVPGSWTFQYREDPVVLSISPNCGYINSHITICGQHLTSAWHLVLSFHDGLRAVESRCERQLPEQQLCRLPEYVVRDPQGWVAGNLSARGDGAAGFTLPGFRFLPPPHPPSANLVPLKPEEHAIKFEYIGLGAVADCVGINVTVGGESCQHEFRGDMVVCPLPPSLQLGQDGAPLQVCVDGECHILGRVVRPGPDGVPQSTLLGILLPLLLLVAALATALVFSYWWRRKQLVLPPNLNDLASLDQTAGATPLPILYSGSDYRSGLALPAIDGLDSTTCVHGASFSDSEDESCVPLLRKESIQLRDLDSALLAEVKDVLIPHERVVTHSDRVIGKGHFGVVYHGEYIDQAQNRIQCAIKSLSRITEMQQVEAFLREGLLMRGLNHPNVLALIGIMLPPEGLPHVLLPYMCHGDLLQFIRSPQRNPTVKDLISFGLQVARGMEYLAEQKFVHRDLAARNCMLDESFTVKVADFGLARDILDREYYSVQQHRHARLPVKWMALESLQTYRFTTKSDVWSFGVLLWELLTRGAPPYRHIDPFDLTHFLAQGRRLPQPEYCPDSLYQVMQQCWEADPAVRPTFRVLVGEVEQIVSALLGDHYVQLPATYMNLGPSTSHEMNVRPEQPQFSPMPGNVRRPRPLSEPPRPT

For the molecule `CCOc1ccn(-c2ccc(F)cc2)c(=O)c1C(=O)Nc1ccc(-c2ccc(O)c(-c3ccnc(N)n3)c2)c(F)c1` [Example 1, N-(3′-(2-aminopyrimidin-4-yl)-2-fluoro-4′-hydroxy-[1,1′-biphenyl]-4-yl)-4-ethoxy-1-(4-fluorophenyl)-2-oxo-1,2-dihydropyridin-3-carboxamide], the IC50 against RON amounted to 144 nM; on MET, 612 nM.

As for `COc1ccn(-c2ccc(F)cc2)c(=O)c1C(=O)Nc1ccc(-c2ccc(O)c(-c3ccnc(N)n3)c2)c(F)c1` [Example 2, N-(3′-(2-aminopyrimidin-4-yl)-2-fluoro-4′-hydroxy-[1,1′-biphenyl]-4-yl)-1-(4-fluorophenyl)-4-methoxy-2-oxo-1,2-dihydropyridin-3-carboxamide], the IC50 at RON turned out to be 131 nM; on MET, 583 nM.

For the molecule `Cn1cc(-c2cc(C(=O)Nc3ccc(-c4ccc(O)c(-c5ccnc(N)n5)c4)c(F)c3)c(=O)n(-c3ccc(F)cc3)c2)cn1` [Example 7, N-(3′-(2-aminopyrimidin-4-yl)-2-fluoro-4′-hydroxy-[1,1′-biphenyl]-4-yl)-1-(4-fluorophenyl)-5-(1-methyl-1H-pyrazol-4-yl)-2-oxo-1,2-dihydropyridin-3-carboxamide], the concentration for half-maximal inhibition (IC50) amounted to 942 nM at RON and 2230 nM against MET.

Turning to `Nc1nccc(-c2cc(-c3ccc(NC(=O)c4cc(C5CC5)cn(-c5ccc(F)cc5)c4=O)cc3F)ccc2O)n1` [Example 8], the results for the half-inhibitory concentration (IC50) against RON and on MET were 834 nM and 2090 nM, respectively.

For `Nc1nccc(-c2cc(-c3ccc(NC(=O)c4ccc(CO)n(-c5ccc(F)cc5)c4=O)cc3F)ccc2O)n1` [Example 10, N-(3′-(2-aminopyrimidin-4-yl)-2-fluoro-4′-hydroxy-[1,1′-biphenyl]-4-yl)-1-(4-fluorophenyl)-6-(hydroxymethyl)-2-oxo-1,2-dihydropyridin-3-carboxamide], the values for the IC50 at RON and on MET were 855 nM and 1710 nM, respectively.

With `CCOc1ccn(-c2ccc(F)cc2)c(=O)c1C(=O)Nc1ccc(-c2ccc(O)c(-c3ccnc(N)n3)c2)c(C)c1` [Example 13, N-(3′-(2-aminopyrimidin-4-yl)-4′-hydroxy-2-methyl-[1,1′-biphenyl]-4-yl)-4-ethoxy-1-(4-fluorophenyl)-2-oxo-1,2-dihydropyridin-3-carboxamide], the IC50 is 1330 nM at RON and 2940 nM at MET.

Regarding `CCOc1ccn(-c2ccc(F)cc2)c(=O)c1C(=O)Nc1ccc(-c2ccc(OC)c(-c3cnc(N)nc3)c2)c(F)c1` [Example 17, N-(3′-(2-aminopyrimidin-5-yl)-2-fluoro-4′-methoxy-[1,1′-biphenyl]-4-yl)-4-ethoxy-1-(4-fluorophenyl)-2-oxo-1,2-dihydropyridin-3-carboxamide], the concentration for half-maximal inhibition (IC50) against RON is 2300 nM; against MET, over 10000 nM.

Molecule `CC(=O)c1cc(Oc2ccc(NC(=O)c3ccc(C)n(-c4ccc(F)cc4)c3=O)cc2F)ccc1O` [Example 37, N-(4-(3-acetyl-4-hydroxyphenoxy)-3-fluorophenyl)-1-(4-fluorophenyl)-6-methyl-2-oxo-1,2-dihydropyridin-3-carboxamide] yielded a half-inhibitory concentration (IC50) on MET of 954 nM.

In turn, `C/C(=N\O)c1cc(Oc2ccc(NC(=O)c3ccc(C)n(-c4ccc(F)cc4)c3=O)cc2F)ccc1O` [Example 38, (E)-N-(3-fluoro-4-(4-hydroxy-3-(1-(hydroxyimino)ethyl)phenoxy)phenyl)-1-(4-fluorophenyl)-6-methyl-2-oxo-1,2-dihydropyridin-3-carboxamide] gave an IC50 against MET of 354 nM.

In turn, `Cc1ccc(C(=O)Nc2ccc(Oc3ccc(O)c(-c4ccnc(N)n4)c3)c(F)c2)c(=O)n1-c1ccc(F)cc1` [Example 40, N-(4-(3-(2-aminopyrimidin-4-yl)-4-hydroxyphenoxy)-3-fluorophenyl)-1-(4-fluorophenyl)-6-methyl-2-oxo-1,2-dihydropyridin-3-carboxamide] returned a half-inhibitory concentration (IC50) against MET of 4 nM.
